Experimental data: patent US5081121A, “4(1H)-quinolone derivatives” (priority 1988, dated 1992)

Assays:
left atrial muscle = assay: Test Method 1: enhancement of contracting force of left atrial muscle extirpated from a guinea pig (electrically stimulated at 1 Hz); assay type: cell-based; conditions: Cavia porcellus, Krebs-Henseleit solution 32° C.; for EC20: read-out: EC20 (molar concentration for enhancing the left atrial muscle contracting force to the level of 20%); for EC50: read-out: EC50 (molar concentration for enhancing the left atrial muscle contracting force to the level of 50%); for EC100: read-out: EC100 (molar concentration for enhancing the left atrial muscle contracting force to the level of 100%)
Experimental: (§1) The drug according to the present invention was evaluated with reference to the physiological activities by means of a method using an atrial muscle extirpated from a guinea pig.
(§2) Male guinea pigs having a body weight of 300-500 g were made swooned by striking his head and were bleeded to death. The heart was extirpated and the right and left atrial muscles were cut off. The tops of each atrial muscle were fixed with cerrefines. The muscle was suspended into an organ-bath in which a Krebs-Henseleit solution (at 32° C.) was filled, and a 95% O2 -5% CO2 gas was flown through the bath. The left atrial muscle was stimulated electrically at a frequency of 1 Hz to stabilize the contracting force of the left atrial muscle. Then, the compounds according to the present invention represented by the general formulae were added to the organ-bath. As for the right atrial muscle, after the pulsation was stabilized, the compounds according to the present invention were added in the organ-bath in the same manner as described above.
(§3) The compounds according to the present invention represented by the aforementioned general formulae enhanced the left atrial muscle contracting force dependent on their concentrations. The drug concentrations for enhancing the left atrial muscle contracting force to the levels of 20%, 50% and 100%, respectively are listed in Table 2. EC20, EC50 and EC100 indicate the molar concentration for enhancing the left atrial muscle contracting force to the levels of 20%, 50% and 100%, respectively. The enhancing rates of the pulsation of the right atrial muscle are also listed within parentheses. The minus values in parentheses indicate that the pulsation of the right atrial muscle is decreased.
(§4) As a control drug, theophylline ([…].

right atrial muscle = assay: Test Method 1: enhancing rate of the pulsation of the right atrial muscle extirpated from a guinea pig; assay type: cell-based; conditions: minus values: pulsation is decreased
Experimental: as §1, §2, §3, §4

SMILES	EC50 (left atrial muscle) [µM]	enhancing rate of the pulsation of the right atrial muscle (in parentheses under EC50) (right atrial muscle) [%]	EC20 (left atrial muscle) [µM]	EC100 (left atrial muscle) [µM]	enhancing rate of the pulsation of the right atrial muscle (in parentheses under EC20) (right atrial muscle) [%]	enhancing rate of the pulsation of the right atrial muscle (in parentheses under EC100) (right atrial muscle) [%]
CCOC(=O)c1c[nH]c2c(OCOC)ccc(OC)c2c1=O [Compound 5, 3-ethoxycarbonyl-5-methoxy-8-methoxymethoxy-4(1H)-quinolone]	–	–	741	–	0.2	–
COc1ccc2c(=O)cc[nH]c2c1O [Compound 3, 8-hydroxy-7-methoxy-4(1H)-quinolone]	977	2.0	708	–	0.8	–
CCCCOc1cc2c(cc1OC)c(=O)cc(-c1ccco1)n2CC [Compound 118, 7-n-butoxy-1-ethyl-2-(2-furyl)-6-methoxy-4(1H)-quinolone]	49	-21.2	10	–	-5.0	–
COc1ccc2[nH]ccc(=O)c2c1O [Compound 1, 5-hydroxy-6-methoxy-4(1H)-quinolone]	398	3.6	199	708	1.2	6.8
CCOC(=O)c1cn(CC)c2cc(OCC)c(OC)cc2c1=O [Compound 34, 7-ethoxy-3-ethoxycarbonyl-1-ethyl-6-methoxy-4(1H)-quinolone]	100	-8.5	6.46	–	-3.2	–
COc1ccc2[nH]ccc(=O)c2c1OCc1ccccc1 [Compound 4, 5-benzyloxy-6-methoxy-4(1H)-quinolone]	–	–	1000	–	0.7	–
CCCCOc1cc2[nH]ccc(=O)c2cc1OC [Compound 52, 7-n-butoxy-6-methoxy-4(1H)-quinolone]	115	-1.2	37.6	422	-1.0	-20.0
CC(=O)c1cccc2c(=O)cc[nH]c12 [Compound 44, 8-acetyl-4(1H)-quinolone]	136	–	< 100	776	–	–
COc1ccc(C)c2c(=O)c(C(=O)N3CCC(c4ccccc4)CC3)c[nH]c12 [Compound 106, 8-methoxy-5-methyl-3-(4-phenylpiperidinyl)carbonyl-4(1H)-quinolone]	245	–	102	447	–	–
CCn1ccc(=O)c2cc(OC)ccc21 [Compound 73, 1-ethyl-6-methoxy-4(1H)-quinolone]	115	–	< 100	241	–	–
C=CCOc1cc2[nH]ccc(=O)c2cc1OC [Compound 53, 7-allyloxy-6-methoxy-4(1H)-quinolone]	117	–	< 100	240	–	–
CCOC(=O)c1ccc2[nH]ccc(=O)c2c1 [Compound 65, 6-ethoxycarbonyl-4(1H)-quinolone]	345	–	< 100	–	–	–

Continued by falling EC50 (left atrial muscle), values first:

EC50 (left atrial muscle) [µM]	enhancing rate of the pulsation of the right atrial muscle (in parentheses under EC50) (right atrial muscle) [%]	SMILES	EC20 (left atrial muscle) [µM]	EC100 (left atrial muscle) [µM]	enhancing rate of the pulsation of the right atrial muscle (in parentheses under EC20) (right atrial muscle) [%]	enhancing rate of the pulsation of the right atrial muscle (in parentheses under EC100) (right atrial muscle) [%]
100	-19.5	COc1cccc2c(=O)c(C(=O)N3CCN(Cc4ccc5c(c4)OCO5)CC3)cn(C)c12 [Compound 107, 8-methoxy-1-methyl-3-{1-[4-(3,4-methylenedioxybenzyl)-piperazinyl]carbonyl}-4(1H)-quinolone]	16.2	–	-6.6	–
97.7	-27.0	CCn1ccc(=O)c2cc(/C=C/c3cc(OC)ccc3OC)ccc21 [Compound 111, 6-[2-trans-(2,5-dimethoxyphenyl)vinyl]-1-ethyl-4(1H)-quinolone]	18.2	–	-9.8	–
87.1	15.3	CCN(CC)c1cc(C)c2[nH]ccc(=O)c2c1 [Compound 9, 6-diethylamino-8-methyl-4(1H)-quinolone]	40.7	299	8.2	18.0
68.4	-2.7	CCn1ccc(=O)c2cc(C)ccc21 [Compound 59, 1-ethyl-6-methyl-4(1H)-quinolone]	12.3	279	-2.0	-3.0
62.4	-1.0	CCOc1cc2c(=O)ccn(CC)c2cc1OC [Compound 49, 6-ethoxy-1-ethyl-7-methoxy-4(1H)-quinolone]	16.8	229	-2.5	10.2
57.5	-6.5	CCOC(=O)c1c[nH]c2c(C)cc(N(CC)CC)cc2c1=O [Compound 84, 6-diethylamino-3-ethoxycarbonyl-8-methyl-4(1H)-quinolone]	35.9	126	-3.0	-11.5
50.7	-3.0	CCn1c(-c2cccs2)cc(=O)c2ccccc21 [Compound 97, 1-ethyl-2-(2-thienyl)-4(1H)-quinolone]	4.52	–	-1.0	–
50.1	–	CCOC(=O)c1cn(CC)c2c(OC)cc(OCC)cc2c1=O [Compound 77, 6-ethoxy-3-ethoxycarbonyl-1-ethyl-8-methoxy-4(1H)-quinolone]	4.73	–	–	–
47.3	13.5	CCOc1cc2c(cc1OC)c(=O)ccn2CC [Compound 58, 7-ethoxy-1-ethyl-6-methoxy-4(1H)-quinolone]	8.13	–	3.0	–
40.3	-5.2	CCOc1cc2c(cc1OC)c(=O)cc(-c1cccs1)n2CC [Compound 102, 7-ethoxy-1-ethyl-6-methoxy-2-(2-thienyl)-4(1H)-quinolone]	2.51	–	-0.2	–
19.5	-2.8	CCOc1cc2c(cc1OC)c(=O)cc(-c1ccco1)n2CC [Compound 101, 7-ethoxy-1-ethyl-2-(2-furyl)-6-methoxy-4(1H)-quinolone]	1.68	89.1	-1.0	0.0
18.8	3.5	O=c1cc(-c2cccs2)[nH]c2ccccc12 [Compound 100, 2-(2-thienyl)-4(1H)-quinolone]	5.43	–	1.8	–
